Among the test systems are K-562 leukemia; UO-31 renal; TK-10 renal; SF-268 CNS; 786-0 renal; SK-MEL-2 melanoma; NCI-H522 lung; MALME-3M melanoma; HS 578T breast; A498 renal.
Holding throughout (test): inhibition of tumour cell growth, NCI panel, 48 h

For 8 compounds, GI50 and TGI results are on record in PubChem BioAssay (NCI).

“And” between values parts separate entries of the source, which are not always exact repeats. Equal values may be shown once.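 These data come from cells grown in 96-well plates and exposed to compound for 48 hours at five concentrations. The concentration for 50% growth inhibition is given as GI50. Definition used: TGI = concentration required for complete inhibition of growth.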 Where a SMILES comes first, the peptide text is derived from it. The star is where a group is joined. Trt = c1ccc(C(c2ccccc2)(c2ccccc2)*)cc1; Cbz = O=C(OCc1ccccc1)*

As to `NC(=O)c1ccc(N(C(N)=O)c2c(F)cccc2F)nc1-c1ccc(F)cc1F`, the GI50 with K-562 leukemia, with UO-31 renal, in the test with TK-10 renal, with SF-268 CNS, in the test with 786-0 renal and in the test on SK-MEL-2 melanoma was greater than 100 µM in each case. Also, the GI50 in the test with NCI-H522 lung was greater than 100 µM; with MALME-3M melanoma, greater than 100 µM; in the test with HS 578T breast, greater than 100 µM; in the test on A498 renal it was greater than 45.4 µM. In addition, the TGI in the test with K-562 leukemia, with UO-31 renal, in the test on TK-10 renal, in the test with SF-268 CNS, with 786-0 renal and in the test on SK-MEL-2 melanoma was greater than 100 µM each time. The TGI in the test on NCI-H522 lung, with MALME-3M melanoma, in the test with HS 578T breast and in the test with A498 renal was greater than 100 µM throughout.

For the compound `Cc1c(Cl)c(C)c(Cc2c(C)c(Cl)c(C)c(Cl)c2O)c(O)c1Cl`, the GI50 with K-562 leukemia is 2.21 µM; with UO-31 renal it was 3.09 µM; in the test on TK-10 renal, 3.79 µM; in the test with SF-268 CNS, 3.4 µM; in the test on 786-0 renal it was 2.98 µM; with SK-MEL-2 melanoma, 2.85 µM. The GI50 is 1.84 µM in the test with NCI-H522 lung, 2.33 µM in the test with MALME-3M melanoma, 2.71 µM with HS 578T breast and 2.04 µM with A498 renal. Moreover, the TGI came to 14.1 µM in the test on K-562 leukemia; 11.6 µM in the test on UO-31 renal; 17.2 µM with TK-10 renal; 15.8 µM with SF-268 CNS; 9.84 µM with 786-0 renal; 9.73 µM in the test on SK-MEL-2 melanoma. Also, the TGI with NCI-H522 lung was 11.2 µM; with MALME-3M melanoma it was 5.97 µM; in the test with HS 578T breast, 9.55 µM; with A498 renal, 6.35 µM.

Regarding `COc1cc(-c2cc(=O)c3c(O)c(OC)c(OC)c(OC)c3o2)cc(OC)c1OC`, the TGI in the test on K-562 leukemia is greater than 100 µM; in the test on UO-31 renal it was greater than 100 µM; in the test with TK-10 renal, greater than 57.6 µM; with SF-268 CNS, greater than 100 µM; in the test with 786-0 renal, 15.6 µM; in the test on SK-MEL-2 melanoma it was greater than 100 µM. Moreover, the TGI in the test on NCI-H522 lung is 98.6 µM; in the test with MALME-3M melanoma, greater than 100 µM; with HS 578T breast it was greater than 20.7 µM; in the test on A498 renal, 9.14 µM.

Take `COC(=O)C(CSC(c1ccccc1)(c1ccccc1)c1ccccc1)NC(=O)C(CC(N)=O)NC(=O)OCc1ccccc1` (stereo not drawn) (Cbz-Asn-Cys(Trt)-OMe; configuration not given here): the GI50 is 3.16 µM in the test with K-562 leukemia; 8.88 µM in the test with UO-31 renal; 5.69 µM in the test on TK-10 renal; 3.08 µM with SF-268 CNS; 3.44 µM in the test on 786-0 renal; 2.12 µM in the test with SK-MEL-2 melanoma. Also, the GI50 in the test with NCI-H522 lung is 3.91 µM; in the test on MALME-3M melanoma, 2.21 µM; with HS 578T breast it was 4.55 µM; in the test on A498 renal, 3.67 µM. In addition, the TGI was determined as 11.4 µM in the test on K-562 leukemia; 21.2 µM in the test with UO-31 renal; 26.8 µM with TK-10 renal; 13.2 µM with SF-268 CNS; 12.6 µM in the test on 786-0 renal; 5.49 µM in the test on SK-MEL-2 melanoma. In addition, the TGI in the test with NCI-H522 lung is 18.7 µM; in the test on MALME-3M melanoma, 12.1 µM; with HS 578T breast it was 26.5 µM; in the test with A498 renal, 13.8 µM.

As to `Cc1c(Cl)cccc1NC(=O)c1sc2nc3c(cc2c1N)CCCC3`, the GI50 was 0.391 µM with K-562 leukemia; 3.03 µM in the test on UO-31 renal; greater than 100 µM in the test on TK-10 renal; 0.786 µM with SF-268 CNS; 0.681 µM in the test with 786-0 renal; 0.46 µM in the test on SK-MEL-2 melanoma. For the same compound, the GI50 was 0.241 µM in the test on NCI-H522 lung, 0.571 µM in the test with MALME-3M melanoma, 1.05 µM in the test with HS 578T breast and 0.413 µM with A498 renal. The TGI with K-562 leukemia, in the test with UO-31 renal, with TK-10 renal, with SF-268 CNS, in the test with 786-0 renal and with SK-MEL-2 melanoma was greater than 100 µM in each case. For the same compound, the TGI in the test with NCI-H522 lung was 0.812 µM; with MALME-3M melanoma, greater than 100 µM; in the test on HS 578T breast, greater than 100 µM; in the test on A498 renal, greater than 100 µM.

As to `Cc1ccc(-c2n[nH]c(=O)c3noc(-c4ccc(C)cc4)c23)cc1`, the GI50 in the test on K-562 leukemia was 0.383 µM; in the test with UO-31 renal, 1.26 µM; in the test with TK-10 renal, 2.35 µM; in the test on SF-268 CNS, 2.21 µM; in the test with 786-0 renal it was 2.78 µM; in the test on SK-MEL-2 melanoma it was 0.451 µM. In addition, the GI50 in the test on NCI-H522 lung is 0.411 µM; with MALME-3M melanoma it was 1.09 µM; in the test with HS 578T breast, 1.31 µM; with A498 renal, 1.27 µM. Moreover, the TGI in the test on K-562 leukemia was greater than 100 µM; with UO-31 renal, 44.9 µM; in the test on TK-10 renal, 14.2 µM; in the test on SF-268 CNS, 27.7 µM; with 786-0 renal, 24.9 µM; with SK-MEL-2 melanoma, 9.49 µM. The TGI was 4.98 µM in the test with NCI-H522 lung, 23.4 µM in the test with MALME-3M melanoma, 15.9 µM in the test on HS 578T breast and 6.71 µM in the test on A498 renal.

As for `Nc1nc(N)c2c(n1)NC(c1sc(Cl)nc1Cl)CC(c1ccc3c(c1)OCO3)=N2` (stereo not given), the GI50 in the test with K-562 leukemia was 0.542 µM; with UO-31 renal, 4.52 µM; with TK-10 renal, 15 µM; in the test on SF-268 CNS, 9.84 µM; with 786-0 renal, 5.43 µM; in the test with SK-MEL-2 melanoma, 5.19 µM. Further, the GI50 was 2.51 µM in the test on NCI-H522 lung, 14.3 µM in the test on MALME-3M melanoma, 2.35 µM with HS 578T breast and 2.3 µM in the test on A498 renal. For the same compound, the TGI in the test on K-562 leukemia was greater than 100 µM; with UO-31 renal, 24.5 µM; in the test with TK-10 renal, 44.2 µM; in the test with SF-268 CNS, 30.2 µM; in the test on 786-0 renal, 24.8 µM; in the test with SK-MEL-2 melanoma, 19 µM. Besides, the TGI in the test on NCI-H522 lung is 13 µM; in the test with MALME-3M melanoma, 29.1 µM; in the test on HS 578T breast it was 31.1 µM; in the test with A498 renal, 12 µM.

On to `Cn1cc(-c2nc(N[C@@H]3CCCC[C@@H]3N)c(F)c3c2C(=O)NC3)cn1`, for which the GI50 in the test with K-562 leukemia was 6.83 µM and 6.77 µM; with UO-31 renal, 5.74 µM and 7.49 µM; in the test with TK-10 renal it was 4.5 µM and 6.16 µM; in the test with SF-268 CNS, 5.42 µM and 6.7 µM; in the test with 786-0 renal, 3.99 µM and 6.36 µM; in the test with SK-MEL-2 melanoma it was 20.5 µM and 24.9 µM. Further, the GI50 in the test on NCI-H522 lung was 12.8 µM and 13.1 µM; in the test on MALME-3M melanoma, 11 µM and 9.57 µM; with HS 578T breast, 5.95 µM and 6.14 µM; in the test on A498 renal, 1.72 µM and 2.45 µM. Moreover, the TGI with K-562 leukemia was greater than 100 µM; in the test with UO-31 renal, 19.7 µM and 21.1 µM; with TK-10 renal, 25.3 µM and 40.6 µM; in the test on SF-268 CNS, greater than 100 µM; with 786-0 renal it was 22.1 µM and > 52.4 µM; with SK-MEL-2 melanoma, greater than 100 µM. Also, the TGI in the test with NCI-H522 lung was 66.5 µM and > 91.1 µM; with MALME-3M melanoma it was 35.2 µM and 50.5 µM; in the test with HS 578T breast, 71 µM and 57.2 µM; in the test on A498 renal, 8.43 µM and 11.3 µM.
